Measurements taken from patent US4001325A, “α-Chloroacetanilide selective herbicides” (Diamond Shamrock Corporation, priority 1973, dated 1977).

Experiments:
[1] = tested on: grass species: red millet, green foxtail, Japanese millet; assay: Greenhouse preemergence herbicide test, grasses; format: in vivo, Panicum milliacem, Setaria viridis, Echinochloa frumentacea; settings: pre-emergence, 336 h, two weeks after treatment; for pest or weed control at 69.4927 g/ha: 0.062 lb/A; for pest or weed control at 140.106 g/ha: 0.125 lb/A; for pest or weed control at 280.212 g/ha: 0.25 lb/A; for pest or weed control at 560.425 g/ha: 0.5 lb/A; for pest or weed control at 1120.85 g/ha: 1.0 lb/A
Description: (§1) To illustrate the preemergence herbicidal efficiency of the alkyl-substituted 2-chloro-N-propargylacetanilides of this invention, test formulations are prepared of each compound by mixing 20 ml of an acetone solution containing 0.125 g of chemical with 20 ml of water containing 0.01 g of Triton X-155 surfactant. The resultant formulations contain 3125 ppm of test compound, 50% by volume of acetone and 0.025% by weight of surfactant. Appropriate lower concentrations are obtained by diluting this formulation with surfactant-acetone solution so that the concentration of adjuvants is maintained at the original levels.
(§2) Seeds of three broadleaf and three grass species are planted in soil contained in 10 inch × 8 inch × 3 inch aluminum pans filled with 1.5 inches of composted soil. The broadleaf species are pigweed (Amaranthus retroflexus), velvetleaf (Abutilon theophrasti), and morningglory (Ipomea coccinea); the grasses are red millet (Panicum milliacem), green foxtail (Setaria viridis) and Japanese millet (Echinochloa frumentacea).
(§3) The seeded pans are sprayed so that the soil surface is uniformly covered with dilutions of the stock formulation providing dosage rates of the test compounds as shown in the following table.
(§4) Two weeks after treatment, percent control (plant kill) at each dosage rate is estimated with results as follows: […]

[2] = tested on: Cotton; assay: Field preemergence test, phytotoxic effects on crop; format: in vivo, cotton (Coker 413)
From the text: (§5) Test plots of fertilized, light sandy soil containing 0.7% organic matter are sprayed uniformly with aqueous suspensions prepared from emulsifiable concentrates containing 12%, by weight, of the test chemicals diluted to provide dosage rates of the test compounds corresponding to 2.0, 1.0, 0.5, and 0.25 pound per acre (lb/A). The plots are then sown with seeds of the following crop plants: sweet corn, cotton (Coker 413) and soybeans, var. Davis. Seeds of the following weed plants are planted: redroot pigweed, prickly sida, common lambsquarter, goosegrass and giant foxtail.
(§6) Three to four weeks after planting, percent control (plant kill) of the test plants is estimated, from a rating of 0 which denotes no injury to the plant up to 100 which denotes complete destruction. The herbicidal action of the test compounds obtained on the weed species is as follows:
(§7) Phytotoxic effects observed on the crop species is estimated with results as follows: […]

[3] = tested on: broadleaf species: pigweed, velvetleaf, morningglory; assay: Greenhouse preemergence herbicide test, broadleaves; format: in vivo; settings: two weeks after treatment, 20160 min
Description: as §1, §2, §3, §4

[4] = tested on: Soybeans; assay: Field preemergence test, phytotoxic effects on crop; format: in vivo, var. Davis
From the text: as §5, §6, §7

[5] = tested on: Goosegrass; assay: Field preemergence test, weed control; format: in vivo; settings: 3-4 weeks after planting
From the text: as §5
(§8) Three to four weeks after planting, percent control (plant kill) of the test plants is estimated, from a rating of 0 which denotes no injury to the plant up to 100 which denotes complete destruction. The herbicidal action of the test compounds obtained on the weed species is as follows: […]

[6] = tested on: Giant Foxtail; assay: Field preemergence test, weed control; format: in vivo; settings: 3-4 weeks after planting
From the text: as §5, §8

[7] = tested on: Redroot Pigweed; assay: Field preemergence test, weed control; format: in vivo; settings: 3-4 weeks after planting
From the text: as §5, §8

[8] = tested on: Common Lambsquarter; assay: Field preemergence test, weed control; format: in vivo; settings: 3-4 weeks after planting
From the text: as §5, §8

[9] = tested on: Prickly Sida; assay: Field preemergence test, weed control; format: in vivo; settings: 3-4 weeks after planting
From the text: as §5, §8

[10] = tested on: Corn; assay: Field preemergence test, phytotoxic effects on crop; format: in vivo, sweet corn
From the text: as §5, §6, §7

SMILES	pest or weed control at 69.4927 g/ha [1] [%]	pest or weed control at 140.106 g/ha [1] [%]	pest or weed control at 280.212 g/ha [1] [%]	pest or weed control at 560.425 g/ha [1] [%]	pest or weed control at 1120.85 g/ha [1] [%]	% Crop Kill, Cotton ([2]; 0.5 lb/A) [%]	% Crop Kill, Cotton ([2]; 1.0 lb/A) [%]	% Crop Kill, Cotton ([2]; 2.0 lb/A) [%]	% Control, Broadleaves ([3]; 0.5 lb/A) [%]	% Control, Broadleaves ([3]; 1.0 lb/A) [%]	% Crop Kill, Soybeans ([4]; 0.5 lb/A) [%]	% Crop Kill, Soybeans ([4]; 1.0 lb/A) [%]	% Crop Kill, Soybeans ([4]; 2.0 lb/A) [%]	% Weed Control, Goosegrass ([5]; 0.25 lb/A) [%]	% Weed Control, Goosegrass ([5]; 0.5 lb/A) [%]	% Weed Control, Goosegrass ([5]; 1.0 lb/A) [%]	% Weed Control, Goosegrass ([5]; 2.0 lb/A) [%]	% Weed Control, Giant Foxtail ([6]; 0.25 lb/A) [%]	% Weed Control, Giant Foxtail ([6]; 0.5 lb/A) [%]	% Weed Control, Giant Foxtail ([6]; 1.0 lb/A) [%]	further results
C#CCN(C(=O)CCl)c1ccccc1CC [Example 11, 2-Chloro-2'-ethyl-N-propargylacetanilide]	0	55	80	90	95	0	10	18	0	35	0	0	3	62	82	100	100	0	23	45	% Weed Control, Giant Foxtail ([6]; 2.0 lb/A): 90%; % Weed Control, Redroot Pigweed ([7]; 0.25 lb/A): 33%; % Weed Control, Redroot Pigweed ([7]; 0.5 lb/A): 75%; % Weed Control, Redroot Pigweed ([7]; 1.0 lb/A): 80%; % Weed Control, Redroot Pigweed ([7]; 2.0 lb/A): 98%; % Weed Control, Common Lambsquarter ([8]; 0.25 lb/A): 50%; % Weed Control, Common Lambsquarter ([8]; 0.5 lb/A): 70%; % Weed Control, Common Lambsquarter ([8]; 1.0 lb/A): 100%; % Weed Control, Common Lambsquarter ([8]; 2.0 lb/A): 100%; % Weed Control, Prickly Sida ([9]; 0.25 lb/A): 0%; % Weed Control, Prickly Sida ([9]; 0.5 lb/A): 13%; % Weed Control, Prickly Sida ([9]; 1.0 lb/A): 33%; % Weed Control, Prickly Sida ([9]; 2.0 lb/A): 57%; % Crop Kill, Corn ([10]; 0.5 lb/A): 0%; % Crop Kill, Corn ([10]; 1.0 lb/A): 0%; % Crop Kill, Corn ([10]; 2.0 lb/A): 0%
C#CCN(C(=O)CCl)c1ccccc1C(C)C [Example 16, 2-Chloro-2'-isopropyl-N-propargylacetanilide]	–	–	80	90	100	–	–	–	–	0	–	–	–	–	–	–	–	–	–	–	–
C#CCN(C(=O)CCl)c1c(C(C)C)cccc1C(C)C [Example 13, 2-Chloro-2',6'-diisopropyl-N-propargylacetanilide]	–	20	50	90	90	–	–	–	–	0	–	–	–	–	–	–	–	–	–	–	–
C#CCN(C(=O)CCl)c1ccccc1C [Example 10, 2-Chloro-2'-methyl-N-propargylacetanilide]	0	55	85	80	90	0	3	3	0	35	0	0	0	53	78	92	97	0	20	70	% Control, Broadleaves ([3]; 0.062 lb/A): 0%; % Control, Broadleaves ([3]; 0.125 lb/A): 0%; % Control, Broadleaves ([3]; 0.25 lb/A): 0%; % Weed Control, Giant Foxtail ([6]; 2.0 lb/A): 80%; % Weed Control, Redroot Pigweed ([7]; 0.25 lb/A): 0%; % Weed Control, Redroot Pigweed ([7]; 0.5 lb/A): 27%; % Weed Control, Redroot Pigweed ([7]; 1.0 lb/A): 45%; % Weed Control, Redroot Pigweed ([7]; 2.0 lb/A): 67%; % Weed Control, Common Lambsquarter ([8]; 0.25 lb/A): 40%; % Weed Control, Common Lambsquarter ([8]; 0.5 lb/A): 60%; % Weed Control, Common Lambsquarter ([8]; 1.0 lb/A): 95%; % Weed Control, Common Lambsquarter ([8]; 2.0 lb/A): 95%; % Weed Control, Prickly Sida ([9]; 0.25 lb/A): 0%; % Weed Control, Prickly Sida ([9]; 0.5 lb/A): 0%; % Weed Control, Prickly Sida ([9]; 1.0 lb/A): 0%; % Weed Control, Prickly Sida ([9]; 2.0 lb/A): 25%; % Crop Kill, Corn ([10]; 0.5 lb/A): 0%; % Crop Kill, Corn ([10]; 1.0 lb/A): 0%; % Crop Kill, Corn ([10]; 2.0 lb/A): 0%
C#CCN(C(=O)CCl)c1c(CC)cccc1C(C)C [Example 14, 2-Chloro-2'-ethyl-6'-isopropyl-N-propargylacetanilide]	–	40	40	80	100	–	–	–	–	0	–	–	–	–	–	–	–	–	–	–	–
C#CCN(C(=O)CCl)c1c(C)cccc1C(C)C [Example 12, 2-Chloro-2'-methyl-6'-isopropyl-N-propargylacetanilide]	45	65	–	70	90	–	–	–	–	0	–	–	–	–	–	–	–	–	–	–	pest or weed control at 2241.7 g/ha ([1]; 2.0 lb/A): 90%; % Control, Broadleaves ([3]; 2.0 lb/A): 40%
